Each compound was assayed against T1, NLRP3 (Homo sapiens, UniProt Q96P20) (assay: Measurement of IL-1β production (NLRP3 hIL1β EC50), PMA-differentiated THP-1 cells). Details: human IL-1β production; assayed using one or more of the described procedures.
T1 construct: host or cells: PMA-differentiated THP-1 cells
Assay type: cell-based
Protocol: THP-1 cells were purchased from the American Type Culture Collection and sub-cultured according to instructions from the supplier. Prior to experiments, cells were cultured in RPMI 1640 containing 10% heat inactivated FBS, penicillin (100 units/ml) and streptomycin (100 μg/ml), and maintained in log phase prior to experimental setup. Prior to the experiment THIP-1 were treated with PMA (Phorbol 12-myristate 13-acetate) (10 μg/ml) for 24 hours. The day of the experiment the media was removed and attaching cells were treated with trypsin for 2 minutes, cells were then collected, washed with PBS (phosphate buffer saline), spin down, resuspended in 2% heat inactivated FBS with RPMI at a concentration of 1×10^6 cells/ml, and 100 μl was plated in a 96 well plate. Compounds were dissolved in dimethyl sulfoxide (DMSO) and added to the culture medium to achieve desired concentration (e.g. 100, 30, 10, 3, 1, 0.3 or 0.1 μM). Cells were incubated with compounds for 4 hours. Cell free supernatant was collected and the production of IL-1β was evaluated by ELISA. A vehicle only control was run concurrently with each experiment. Final DMSO concentration was 1%.
THP-1 cells were purchased from the American Type Culture Collection and sub-cultured according to instructions from the supplier. Prior to experiments, cells were cultured in RPMI 1640 containing 10% heat inactivated FBS, penicillin (100 units/ml), streptomycin (100 μg/ml), HEPES (10 mM) and sodium pyruvate (1 mM) and maintained in log phase prior to experimental setup. Prior to the experiment, THP-1 cells were treated with PMA (Phorbol 12-myristate 13-acetate) (20 μg/ml) overnight. The day of the experiment, the media was removed and attached cells were treated with trypsin for 2 minutes, cells were then collected, washed with PBS (phosphate buffer saline), pelleted by centrifugation and resuspended in 2% heat inactivated FBS with RPMI at a concentration of 50,000 cells/well in a 384 well plate. Cell free supernatant was collected and the production of IL-1β was evaluated by ELISA. Compounds were dissolved in dimethyl sulfoxide (DMSO) and added to the culture medium to achieve desired concentration (e.g. 100, 30, 10, 3, 1, 0.3 or 0.1 μM). Cells were incubated with compounds for 2 hours. A vehicle only control was run concurrently with each experiment. Final DMSO concentration was 1%.
Serial dilutions of compounds in DMSO were added to low volume 384 well plates at 100 nl/well using an ECHO 550 acoustic dispenser (Labcyte) to achieve final starting concentration of 10 μM in assay.
THP-1 cells in RPMI (Gibco, 11875) media with 10% FBS at a density of 1×10^6 cell/ml in a T175 flask were treated with a final concentration of phorbol 12-myristate 13-acetate (PMA) (Sigma,P1585) of 50 ng/ml overnight at 37° C. at 5% CO2 for differentiation. Cells were harvested the next day after rinsing well with dPBS using 0.5% trypsin. A cell solution was prepared of 1×10^6 cells/ml for 50,000 cells in 50 μl/well in RPMI media with 2% FBS. Cells were plated using a multichannel pipette onto the compound dilutions in Greiner, 384 well, black clear bottom tissue culture treated plates (781090). The plates were incubated in 37° C. incubator at 5% CO2 for 2 hours.
After the 2 hour incubation, the cell plates were spun in the centrifuge for 5 minutes at 1200 rpm. Using the Felix (CyBio), 8 μl of the supernatant was transferred to 384 well, low volume, white proxy plates. (Perkin Elmer, 6008230). A human IL1beta hTRF kit was used to analyze the supernatant (CISBIO, 62HIL1BPEG). The kit instructions were followed for preparing the IL1Beta standard curve and then the antibodies from the kit were diluted 1:40 rather than 1:20 as kit instructed. Once combined, the antibodies were added across the plates, 5 μl/well. The plates were sealed and incubated at 4° C. overnight. The plates were then read on the Perkin Elmer EnVision at 665/615 nm using the hTRF laser.

T1 sequence (Q96P20 whole entry): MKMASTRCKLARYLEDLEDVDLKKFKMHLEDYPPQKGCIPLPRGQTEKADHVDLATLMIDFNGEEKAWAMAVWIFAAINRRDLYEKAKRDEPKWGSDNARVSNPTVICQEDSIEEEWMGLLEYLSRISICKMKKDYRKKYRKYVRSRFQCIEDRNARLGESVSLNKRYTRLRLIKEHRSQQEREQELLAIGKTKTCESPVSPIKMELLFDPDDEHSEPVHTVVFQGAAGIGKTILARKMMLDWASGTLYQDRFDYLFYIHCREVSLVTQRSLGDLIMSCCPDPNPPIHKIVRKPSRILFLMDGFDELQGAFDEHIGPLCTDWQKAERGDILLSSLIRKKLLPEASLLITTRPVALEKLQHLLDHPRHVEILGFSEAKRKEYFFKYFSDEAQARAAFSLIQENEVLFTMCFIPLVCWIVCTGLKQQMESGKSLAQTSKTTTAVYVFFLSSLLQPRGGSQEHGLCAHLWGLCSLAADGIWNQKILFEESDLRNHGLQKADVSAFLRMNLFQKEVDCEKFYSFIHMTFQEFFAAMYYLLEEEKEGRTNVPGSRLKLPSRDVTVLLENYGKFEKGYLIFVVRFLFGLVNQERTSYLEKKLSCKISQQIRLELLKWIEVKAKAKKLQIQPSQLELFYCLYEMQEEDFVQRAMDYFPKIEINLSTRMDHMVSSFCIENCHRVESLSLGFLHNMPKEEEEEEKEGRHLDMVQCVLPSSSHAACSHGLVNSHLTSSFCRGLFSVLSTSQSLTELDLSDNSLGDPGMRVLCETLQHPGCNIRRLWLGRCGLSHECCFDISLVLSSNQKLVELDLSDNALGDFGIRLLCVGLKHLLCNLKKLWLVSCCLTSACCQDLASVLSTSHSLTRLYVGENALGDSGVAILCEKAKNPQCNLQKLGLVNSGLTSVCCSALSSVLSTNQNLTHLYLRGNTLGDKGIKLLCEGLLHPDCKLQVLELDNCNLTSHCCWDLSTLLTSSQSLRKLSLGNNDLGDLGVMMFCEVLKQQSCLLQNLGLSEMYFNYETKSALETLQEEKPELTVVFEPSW

Row | Compound | EC50 [µM]
1 | CCN1CCC(Cc2nc3c(N)nc4cc(-n5cccn5)ccc4c3[nH]2)C1 (centres unmarked) [Example 22, 2-((1-Ethylpyrrolidin-3-yl)methyl)-7-(1H-pyrazol-1-yl)-1H-imidazo[4,5-c]quinolin-4-amine] | 1.4
2 | Nc1nc2cc(-c3cc[nH]n3)ccc2c2[nH]c([C@@H]3CCCNC3)nc12 [Example 7, (R)-2-(Piperidin-3-yl)-7-(1H-pyrazol-3-yl)-1H-imidazo[4,5-c]quinolin-4-amine] | 1.73
3 | Nc1nc2cc(-c3cc[nH]n3)ccc2c2[nH]c([C@H]3CCN(C(=O)c4ccccc4)C3)nc12 [Example 76] | 5.5
4 | N#CC1(C(=O)N2CCC[C@@H](c3nc4c(N)nc5cc(-c6cc[nH]n6)ccc5c4[nH]3)C2)CCC1 [Example 69] | 2
5 | CCC(=O)N1CCC[C@H](c2nc3c(N)nc4cc(-c5cc[nH]n5)ccc4c3[nH]2)C1 [Example 25] | 1.1
6 | Nc1nc2cc(-c3cc[nH]n3)ccc2c2[nH]c([C@H]3CCCN(C(=O)C4CC(F)(F)C4)C3)nc12 [Example 32] | 2.5
7 | COCC(=O)N1CCC[C@@H](c2nc3c(N)nc4cc(-c5cc[nH]n5)ccc4c3[nH]2)C1 [Example 64] | 9.9
8 | CCN1CCC(Cc2nc3c(N)nc4cc(-c5cc[nH]n5)ccc4c3[nH]2)C1 (centres unmarked) [Example 21, 2-((1-Ethylpyrrolidin-3-yl)methyl)-7-(1H-pyrazol-3-yl)-1H-imidazo[4,5-c]quinolin-4-amine] | 0.88
9 | CCCC(=O)N1CCC[C@H](c2nc3c(N)nc4cc(-c5cc[nH]n5)ccc4c3[nH]2)C1 [Example 27] | 0.89
10 | CCn1c([C@H]2CCCN(C(=O)Cc3ccccc3)C2)nc2c(N)nc3cc(-c4cc[nH]n4)ccc3c21 [Example 50] | 0.22
11 | N#CC1(C(=O)N2CCC[C@H](c3nc4c(N)nc5cc(-c6cc[nH]n6)ccc5c4[nH]3)C2)CCC1 [Example 37] | 4.7
12 | Nc1nc2cc(-c3cc[nH]n3)ccc2c2[nH]c([C@@H]3CCCN(C(=O)c4ccccc4)C3)nc12 [Example 67] | 1.8
13 | N#CC1(C(=O)N2CCC[C@@H]2Cc2nc3c(N)nc4cc(-c5cc[nH]n5)ccc4c3[nH]2)CCC1 [Example 82] | 2.6
14 | CC(C)CC(=O)N1CCC[C@H](c2nc3c(N)nc4cc(-c5cc[nH]n5)ccc4c3n2C(C)C)C1 [Example 53] | 0.23
15 | CC(C)n1c([C@H]2CCCN(C(=O)c3ccccc3)C2)nc2c(N)nc3cc(-c4cc[nH]n4)ccc3c21 [Example 56] | 0.3
16 | CCn1c([C@H]2CCCN(C(=O)C3CCC3)C2)nc2c(N)nc3cc(-c4cc[nH]n4)ccc3c21 [Example 44] | 0.22
17 | CC(C)C(=O)N1CCC[C@@H]1Cc1nc2c(N)nc3cc(-c4cc[nH]n4)ccc3c2[nH]1 [Example 79] | 1.6
18 | CC(C)C(=O)N1CC[C@H](c2nc3c(N)nc4cc(-c5cc[nH]n5)ccc4c3[nH]2)C1 [Example 72] | 3.1
19 | CCn1c([C@H]2CCCN(C(=O)CCOC)C2)nc2c(N)nc3cc(-c4cc[nH]n4)ccc3c21 [Example 47] | 0.64
20 | CC(=O)N1CCC[C@H](c2nc3c(N)nc4cc(-c5cc[nH]n5)ccc4c3n2C(C)C)C1 [Example 51] | 0.93
21 | COCC(=O)N1CCC[C@H](c2nc3c(N)nc4cc(-c5cc[nH]n5)ccc4c3[nH]2)C1 [Example 34] | 2.2
22 | COCC(=O)N1CCC[C@@H]1Cc1nc2c(N)nc3cc(-c4cc[nH]n4)ccc3c2[nH]1 [Example 80] | 6.6

Row | Compound | EC50 [µM]
23 | CCC(=O)N1CC[C@H](c2nc3c(N)nc4cc(-c5cc[nH]n5)ccc4c3[nH]2)C1 [Example 9, (S)-1-(3-(4-Amino-7-(1H-pyrazol-3-yl)-1H-imidazo[4,5-c]quinolin-2-yl)pyrrolidin-1-yl)propan-1-one] | 6.6
24 | COC(=O)N1CCC(Cc2nc3c(N)nc4cc(-c5cc[nH]n5)ccc4c3[nH]2)C1 (centres unmarked) [Example 19, Methyl 3-((4-amino-7-(1H-pyrazol-3-yl)-1H-imidazo[4,5-c]quinolin-2-yl)methyl)pyrrolidine-1-carboxylate] | 1.6
25 | CCn1c([C@H]2CCCN(C(=O)C3(C#N)CC3)C2)nc2c(N)nc3cc(-c4cc[nH]n4)ccc3c21 [Example 45] | 0.11
26 | CCCC(=O)N1CCC[C@@H](c2nc3c(N)nc4cc(-c5cc[nH]n5)ccc4c3[nH]2)C1 [Example 62] | 1.2
27 | Nc1nc2cc(-c3cc[nH]n3)ccc2c2[nH]c([C@H]3CCCN(C(=O)C4CCC4)C3)nc12 [Example 30] | 0.68
28 | Nc1nc2cc(-c3cc[nH]n3)ccc2c2[nH]c(C[C@H]3CCCN3C(=O)C3(C(F)(F)F)CC3)nc12 [Example 81] | 4
29 | CC(C)n1c([C@H]2CCCN(C(=O)Cc3ccccc3)C2)nc2c(N)nc3cc(-c4cc[nH]n4)ccc3c21 [Example 57] | 0.4
30 | CCn1c([C@H]2CCCN(C(=O)C3CC3(F)F)C2)nc2c(N)nc3cc(-c4cc[nH]n4)ccc3c21 (some centres unmarked) [Example 48] | 0.08
31 | CC(C)(C)C(=O)N1CCC[C@@H](c2nc3c(N)nc4cc(-c5cc[nH]n5)ccc4c3[nH]2)C1 [Example 61] | 2.3
32 | Nc1nc2cc(-c3cc[nH]n3)ccc2c2[nH]c([C@H]3CCCN(C(=O)C4(C(F)(F)F)CC4)C3)nc12 [Example 36] | 2.8
33 | Nc1nc2cc(-c3cc[nH]n3)ccc2c2[nH]c([C@@H]3CCCN(C(=O)C4(C(F)(F)F)CC4)C3)nc12 [Example 68] | 2.3
34 | COCCC(=O)N1CCC[C@H](c2nc3c(N)nc4cc(-c5cc[nH]n5)ccc4c3[nH]2)C1 [Example 35] | 1.8
35 | Nc1nc2cc(-c3cc[nH]n3)ccc2c2[nH]c([C@H]3CCN(C(=O)CC(F)(F)F)C3)nc12 [Example 74] | 6.8
36 | CCCC(=O)N1CCC[C@H](c2nc3c(N)nc4cc(-c5cc[nH]n5)ccc4c3n2CC)C1 [Example 42] | 0.22
37 | CC(C)C(=O)N1CC[C@@H](c2nc3c(N)nc4cc(-c5cc[nH]n5)ccc4c3[nH]2)C1 [Example 11, (R)-1-(3-(4-Amino-7-(1H-pyrazol-3-yl)-1H-imidazo[4,5-c]quinolin-2-yl)pyrrolidin-1-yl)-2-methylpropan-1-one] | 7
38 | Nc1nc2cc(-c3cc[nH]n3)ccc2c2[nH]c(C[C@@H]3CCCN3C(=O)C3CC3(F)F)nc12 (some centres unmarked) [Example 91] | 4.1
39 | Nc1nc2cc(-c3cc[nH]n3)ccc2c2[nH]c([C@H]3CCCN(C(=O)c4ccccc4)C3)nc12 [Example 31] | 1.5
40 | CC(C)n1c([C@H]2CCCN(C(=O)C3CCC3)C2)nc2c(N)nc3cc(-c4cc[nH]n4)ccc3c21 [Example 54] | 0.24
41 | CCn1c([C@H]2CCCN(C(=O)c3ccccc3)C2)nc2c(N)nc3cc(-c4cc[nH]n4)ccc3c21 [Example 46] | 0.18
42 | Nc1nc2cc(-c3cc[nH]n3)ccc2c2[nH]c(C[C@@H]3CCCN3C(=O)c3ccccc3)nc12 [Example 96] | 11
43 | Nc1nc2cc(-c3cc[nH]n3)ccc2c2[nH]c([C@@H]3CCCN(C(=O)C4CCC4)C3)nc12 [Example 8, (R)-(3-(4-Amino-7-(1H-pyrazol-3-yl)-1H-imidazo[4,5-c]quinolin-2-yl)piperidin-1-yl)(cyclobutyl)methanone] | 1.9
44 | Nc1nc2cc(-c3cc[nH]n3)ccc2c2[nH]c(C[C@H]3CCCN3C(=O)c3ccccc3)nc12 [Example 84] | 2.5

Source: patent publication US12492200B2, “NLRP3 modulators” (INNATE TUMOR IMMUNITY, INC., priority 2020, dated 2025)
